Test results: patent US20180267019A1, “USE OF PEPTIDE HYDROGEL SCAFFOLDS FOR THREE-DIMENSIONAL THROUGHPUT DRUG DISCOVERY” (UNIVERSITY OF DELAWARE, priority 2015, published 2018)

Assays:
[1] = system: human medulloblastoma cells; assay: RealTime-Glo cell viability of medulloblastoma cells encapsulated in MAX8 hydrogel-cell constructs; format: cell-based
Procedure: (§1) Human medulloblastoma cells were propagated in Dulbecco's […] Media (DMEM) supplemented with 10% fetal bovine serum and penicillin-streptomycin-glutamine at 37° C. and 5% CO2 using standard 2D cell culture protocols and tissue-culture treated plastic cell ware. For isolation of primary cerebellar granule precursor (CGP) cells, the cerebellum was dissected from P4-6 pups of C57BL/6 mice and dissociated into single cells using the Papain Dissociation System kit (Worthington Biochemical Corp, Freehold, N.J.). After filtering through a nylon mesh (70 μm pore size), the cells were briefly centrifuged and resuspended in Neurobasal medium supplemented with […] and B27.
In general and unless otherwise indicated, MAX8-cell constructs were prepared as 0.25 wt % MAX8 hydrogels. First, the peptide was dissolved in 50 mM HEPES buffer (pH 7.4) ([…] of hydrogel) and then an equal volume of single cell suspension in DMEM was added and gently mixed. Mixing the MAX8 solution with the culture medium triggers the intramolecular folding of the peptide, resulting in self-assembly into a hydrogel. For additional hydrogels with different concentrations of MAX8, the amount of peptide was adjusted but otherwise the same hydrogel assembly protocol was followed. The same procedures were followed when functionalized MAX8 was used to prepare hydrogel-cell constructs.
(§2) Unless noted otherwise, cell viability assays were performed in 384-well plates using the RealTime-Glo™ MT Cell Viability Assay from Promega. For each experiment two stock solutions were prepared. For the first solution, 50 mM HEPES (pH 7.4) buffer was mixed with 0.5 wt % MAX8 (5 mg MAX8 per mL buffer solution for a final 0.25 wt % MAX8 hydrogel construct). The second solution was a cell solution with 11×10^6 per mL of medulloblastoma cells in serum-free DMEM. The two stock solutions were thoroughly mixed 1:1 to create a cell/gel mixture and 4 μL of the mixture was added per well to a white 384 well assay plate (Corning) containing 41 μL culture medium per well. The cells were allowed to equilibrate for 24 hours before any luminescence was determined. 10× RealTime-Glo was added in 5 μL of media to each well already containing 45 μL to a final concentration of 1×. For cell viability assays in 96-well plates, the following volumes were used. 74 μL of DMEM cell media containing serum was added to each well, 16 μL of the previously mentioned 0.25 wt % MAX8 cell/gel construct was then added to each well. 10 μL of 10× RealTime-Glo was added to the wells for a final concentration of 1×. The plate was incubated for 60 minutes at 37 C and the luminescence was measured using an Envision Multilevel Reader (Perkin Elmer).

[2] = system: primary cerebellar granule precursors (CGPs); assay: RealTime-Glo cell viability of primary cerebellar granule precursor cells encapsulated in MAX8; format: cell-based, C57BL/6 mice; conditions: 0.5 wt % MAX8, RealTime-Glo, FIG. 2B
Procedure: as §1
In general and unless otherwise indicated, MAX8-cell constructs were prepared as 0.25 wt % MAX8 hydrogels. First, the peptide was dissolved in 50 mM HEPES buffer (pH 7.4) ([…] of hydrogel) and then an equal volume of single cell suspension in DMEM was added and gently mixed. […]
Unless noted otherwise, cell viability assays were performed in 384-well plates using the RealTime-Glo™ MT Cell Viability Assay from Promega. […] The cells were allowed to equilibrate for 24 hours before any luminescence was determined. […] The plate was incubated for 60 minutes at 37 C and the luminescence was measured using an Envision Multilevel Reader (Perkin Elmer).

[3] = Hydrogel material properties (oscillatory rheology, gelation); format: physicochemical
Procedure: Rheology measurements were performed on an AR G2 rheometer (TA instruments) with a 20 mm stainless steel parallel plate geometry. […] Dynamic time sweep experiments (DTS) were performed to monitor the storage (G′) and loss (G″) modulus as a function of time (6 rad/s frequency, 0.2% strain) for 60 min. For shear-thinning experiments, the samples were subjected to 500 s^−1 steady-state shear for 60 s after which oscillatory measurement was performed at 6 rad/s frequency, 0.2% strain. Subsequently, recovery of the storage (G′) and loss (G″) modulus as a function of time was monitored for 30 min. Dynamic frequency (0.1-100 rad/s frequency, 1.0% strain) sweep experiments were performed to establish the frequency response of the samples. All measurements were performed in triplicates.

medulloblastoma cells [4] = assay: DMSO tolerance of medulloblastoma cells in hydrogel-cell constructs, 384-well plate; format: cell-based, human
Procedure: as §2, with “10× RealTime-Glo was added in 5 μL of media to each well already containing 45 μL to a final concentration of 1×. For cell viability assays in 96-well plates, the following volumes were used. 74 μL of DMEM cell media containing serum was added to each well, 16 μL of the previously mentioned 0.25 wt % MAX8 cell/gel construct was then added to each well. 10 μL of 10× RealTime-Glo was added to the wells for a final concentration of 1×.” left out
Owing to its unique shear force properties, MAX8-medulloblastoma cell constructs were dispensed at room temperature into 384-well plates (2,000 cells in 4 μL of hydrogel) (Brandtech) with 50 μL of culture medium (DMEM with serum) using a BioTek microplate dispenser. […] 10 μL of the intermediate drug media was then added to the QC plates, and following 48 h of cell culture the cell viability was measured using RealTime-Glo and the previously described method.

medulloblastoma cells [5] = assay: Treatment of MAX8-RGDS-encapsulated medulloblastoma cells and 2D monolayers with vismodegib, cell viability; format: cell-based, human; conditions: MAX8-RGDS 3D constructs vs 2D monolayers, 48 hours, FIG. 3B
Procedure: Vismodegib was added into the surrounding tissue culture medium of MAX8 hydrogel-cell constructs after 24 hours of cell seeding at the indicated concentrations. To limit the exposure of cultured cells to dimethyl sulfoxide (DMSO) from stock solutions of test compounds, 3.5 μL of stock solution was diluted in 1 mL of culture medium and then 20 μL of this solution was added to each well using the Janus workstation (PerkinElmer). Following 48 hours of cell culture the cell viability was measured as previously described using RealTime-Glo with a final concentration of 1×.

[6] = 0.5 wt % hydrogel, RealTime-Glo, FIG. 2C

## IKVAVVKVKVKVK-(V^DPPT)-KVEVKVKV-NH2 [MAX8-IKVAV]
[1]; [6]
  proliferation of medulloblastoma cells when compared to MAX8: increased the proliferation

## YIGSRVKVKVKVK-(V^DPPT)-KVEVKVKV-NH2 [MAX8-YIGSR]
[1]; [6]
  proliferation of medulloblastoma cells when compared to MAX8: increased the proliferation

## VKVKVKVK-(V^DPPT)-KVEVKVKV-NH2 [MAX8]
[2]
  viability of primary CGPs within MAX8-cell constructs: viable for several days
[1]; 0.25 or 0.5 wt % MAX8, RealTime-Glo, FIG. 2A
  viability of medulloblastoma cells within MAX8-cell constructs: viable for several days
[1]; 0.25 vs 0.5 wt % MAX8, FIG. 2A
  cell proliferation as a function of MAX8 concentration: cell proliferation decreased with increasing MAX8 concentrations
[3]; controllable by weight percent of the peptide
  stiffness of the hydrogel: around 1000 Pa
[3]; room temperature, physiological salt concentration and pH
  gelation time: gelates within a minute

## C[S+](C)[O-] [DMSO, dimethyl sulfoxide]
Medulloblastoma cells [4]
  DMSO concentration at which medulloblastoma cells were viable: up to 1%

## CS(=O)(=O)c1ccc(C(=O)Nc2ccc(Cl)c(-c3ccccn3)c2)c(Cl)c1 [vismodegib]
Medulloblastoma cells [5]
  sensitivity (dose response of cell viability), monolayers vs hydrogel cultures: shift in dose response curves between monolayers and hydrogel cultures

## RGDSVKVKVKVK-(V^DPPT)-KVEVKVKV-NH2 [MAX8-RGDS]
[1]; [6]
  proliferation of medulloblastoma cells encapsulated in cell constructs, over native MAX8: 1.4 fold
